Assay results as given in patent EP1202975B1, “SUBSTITUTED POLYCYCLIC ARYL AND HETEROARYL PYRAZINONES USEFUL FOR SELECTIVE INHIBITION OF THE COAGULATION CASCADE” (Pharmacia Corporation, priority 1999, dated 2000).
Read-outs that look alike come from different tables or passages of the source.

Legend:
TF-VIIa = target: T1, TF-VIIa (Homo sapiens, UniProt P08709); assay: TF-VIIa Assay; assay type: biochemical
T1 construct: 2nM recombinant human factor VIIa; purchased American Diagnostica, Greenwich CT; host or cells: soluble TF made in house in E. coli

Human factor Xa = Human factor Xa (Homo sapiens, UniProt P00742); assay: Xa Assay; details: for IC50 or % Inhibition Factor Xa (30 µM): % inhibition at 30 µM
[1] = read-out: IC50 or % Inhibition TF-VIIa (30 µM); cells given as a plain number (IC50)
[2] = read-out: IC50 or % Inhibition Factor Xa (30 µM), cells given as a plain number (IC50)
[3] = cells given as a plain number (IC50); read-out: IC50 or % Inhibition TF-VIIa (30 µM)

Human factor Xa, sequence (P00742 235-488 limits assumed): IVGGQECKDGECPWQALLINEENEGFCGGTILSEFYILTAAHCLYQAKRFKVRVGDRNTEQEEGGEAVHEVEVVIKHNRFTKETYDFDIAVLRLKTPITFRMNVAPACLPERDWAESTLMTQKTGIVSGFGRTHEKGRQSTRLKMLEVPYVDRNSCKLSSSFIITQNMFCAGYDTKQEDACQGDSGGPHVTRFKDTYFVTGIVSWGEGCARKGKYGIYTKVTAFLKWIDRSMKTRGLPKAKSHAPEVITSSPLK
Human factor Xa, sequence (P00742 41-179 limits assumed): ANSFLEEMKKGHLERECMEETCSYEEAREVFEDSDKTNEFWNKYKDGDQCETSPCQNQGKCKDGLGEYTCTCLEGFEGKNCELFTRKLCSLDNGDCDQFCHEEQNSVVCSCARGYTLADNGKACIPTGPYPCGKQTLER
T1 sequence (P08709 213-466 limits assumed): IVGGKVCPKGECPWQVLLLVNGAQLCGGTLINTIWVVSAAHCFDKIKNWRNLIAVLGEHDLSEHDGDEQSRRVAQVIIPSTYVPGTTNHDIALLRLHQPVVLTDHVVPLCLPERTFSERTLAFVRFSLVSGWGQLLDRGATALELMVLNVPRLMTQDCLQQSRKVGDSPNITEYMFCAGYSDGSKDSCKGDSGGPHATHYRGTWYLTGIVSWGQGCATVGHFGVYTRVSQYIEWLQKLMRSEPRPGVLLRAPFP
T1 sequence (P08709 61-212 limits assumed): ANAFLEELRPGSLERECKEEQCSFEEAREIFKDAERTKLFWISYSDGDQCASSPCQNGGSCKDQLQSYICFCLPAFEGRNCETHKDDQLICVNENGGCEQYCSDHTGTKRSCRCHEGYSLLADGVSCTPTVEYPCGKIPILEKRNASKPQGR
T1 sequence (P13726 33-251 partner limits assumed): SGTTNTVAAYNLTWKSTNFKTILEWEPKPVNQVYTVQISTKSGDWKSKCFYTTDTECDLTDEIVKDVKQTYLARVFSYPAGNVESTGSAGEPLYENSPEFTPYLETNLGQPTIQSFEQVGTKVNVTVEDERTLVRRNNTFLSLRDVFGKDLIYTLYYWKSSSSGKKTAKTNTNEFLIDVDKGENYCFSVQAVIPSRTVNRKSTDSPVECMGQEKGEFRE

| IC50 (TF-VIIa; [1]) [µM] | IC50 (Human factor Xa; [2]) [µM] | IC50 (TF-VIIa; [3]) [µM] | Structure (SMILES) | also measured |
| --- | --- | --- | --- | --- |
| 6.7 | > 30 | – | COc1cccc(CCNc2nc(Cl)c(-c3ccccc3)n(CC(=O)NCc3ccc(C(=N)N)cc3)c2=O)c1 [1507-12] | – |
| 1.6 | > 30 | – | N=C(N)c1ccc(CNC(=O)Cn2c(-c3ccccc3)c(Cl)nc(NC3CCCC3)c2=O)cc1 [1507-25] | – |
| – | – | 1.2 | CC(C)CCNc1nc(Cl)c(-c2ccccc2)n(CC(=O)NCc2ccc(C(=N)N)cc2)c1=O [1517-40] | IC50 or % Inhibition Factor Xa (30 µM) (Human factor Xa): 0% |
| – | – | 1.2 | CNc1cccc(-c2c(Cl)nc(NC(C)C)c(=O)n2CC(=O)NCc2ccc(C(=N)N)cc2)c1 [Example 104] | IC50 (Human factor Xa): > 30 µM |
| – | – | 2.2 | CC(C)(C)CCNc1nc(Cl)c(-c2ccccc2)n(CC(=O)NCc2ccc(C(=N)N)cc2)c1=O [1517-41] | IC50 or % Inhibition Factor Xa (30 µM) (Human factor Xa): 0% |
| – | – | 3.2 | CCCCNc1nc(Cl)c(-c2ccccc2)n(CC(=O)NCc2ccc(C(=N)N)cc2)c1=O [1512-14] | IC50 or % Inhibition Factor Xa (30 µM) (Human factor Xa): 7% |
| – | > 30 | 0.5 | CC(C)CNc1nc(Cl)c(-c2ccccc2)n(CC(=O)NCc2ccc(C(=N)N)cc2)c1=O [1522-34] | – |
| 8.5 | > 30 | – | C[C@H](Nc1nc(Cl)c(-c2ccccc2)n(CC(=O)NCc2ccc(C(=N)N)cc2)c1=O)c1ccccc1 [1507-34] | – |
| 2.2 | > 30 | – | CC(CNc1nc(Cl)c(-c2ccccc2)n(CC(=O)NCc2ccc(C(=N)N)cc2)c1=O)N(C)C (stereo not shown) [1522-23] | – |
| 0.06 | > 30 | – | CCCNc1nc(Cl)c(-c2cccc(N)c2)n(CC(=O)NCc2ccc(C(=N)N)cc2)c1=O [1526-13] | – |
| – | > 30 | 21.3 | CC(C)CNc1nc(Cl)c(-c2ccccc2)n(CC(=O)NCc2ccc(C(=N)N)cc2)c1=O [1507-32] | – |
| – | – | 14.3 | N=C(N)c1ccc(CNC(=O)Cn2c(-c3ccccc3)c(Cl)nc(NC3CCS(=O)(=O)C3)c2=O)cc1 (stereo not shown) [1512-19] | IC50 or % Inhibition Factor Xa (30 µM) (Human factor Xa): 3% |
| 1.2 | > 30 | – | N=C(N)c1ccc(CNC(=O)Cn2c(-c3cccs3)c(Cl)nc(NCCc3ccccc3)c2=O)cc1 [1515-30] | – |
| – | – | 0.71 | CC(C)Nc1nc(Cl)c(-c2cccc(C#N)c2)n(CC(=O)NCc2ccc(C(=N)N)cc2)c1=O [Example 17] | IC50 or % Inhibition Factor Xa (30 µM) (Human factor Xa): 41% |
| 3 | > 30 | – | COc1ccc(CCNc2nc(Cl)c(-c3ccccc3)n(CC(=O)NCc3ccc(C(=N)N)cc3)c2=O)cc1 [1507-11] | – |

Second part, the compound before the results:

| Structure (SMILES) | IC50 (TF-VIIa; [1]) [µM] | IC50 (Human factor Xa; [2]) [µM] | IC50 (TF-VIIa; [3]) [µM] | also measured |
| --- | --- | --- | --- | --- |
| N=C(N)c1ccc(CNC(=O)Cn2c(-c3cccs3)c(Cl)nc(NC3CCC3)c2=O)cc1 [1515-18] | 0.6 | > 30 | – | – |
| N=C(N)c1ccc(CNC(=O)Cn2c(-c3ccccc3Cl)c(Cl)nc(NC3CCC3)c2=O)cc1 [1515-16] | 8.8 | > 30 | – | – |
| N=C(N)c1ccc(CNC(=O)Cn2c(-c3ccccc3)c(Cl)nc(NCCNc3ncccc3C(F)(F)F)c2=O)cc1 [1522-38] | 1 | > 30 | – | – |
| C=CCNc1nc(Cl)c(-c2cccc(N)c2)n(CC(=O)NCc2ccc(C(=N)N)cc2)c1=O [1526-19] | 0.04 | > 30 | – | – |
| N=C(N)c1ccc(CNC(=O)Cn2c(-c3cccc(Cl)c3)c(Cl)nc(NCc3ccccc3)c2=O)cc1 [Example 23] | – | – | 1.7 | IC50 or % Inhibition Factor Xa (30 µM) (Human factor Xa): 38%@30 |
| N=C(N)c1ccc(CNC(=O)Cn2c(-c3ccccc3)cnc(NC(=O)Nc3cccc(N)c3)c2=O)cc1 [Example 107] | – | – | 0.57 | IC50 or % Inhibition Factor Xa (30 µM) (Human factor Xa): 35% |
| N=C(N)c1ccc(CNC(=O)Cn2c(-c3ccccc3F)c(Cl)nc(NC3CCC3)c2=O)cc1 [1515-23] | 6.2 | > 30 | – | – |
| COc1cccc(-c2c(Cl)nc(NC3CCC3)c(=O)n2CC(=O)NCc2ccc(C(=N)N)cc2)c1 [1515-17] | 4.4 | > 30 | – | – |
| N=C(N)c1ccc(CNC(=O)Cn2c(-c3cccc(N)c3)c(Cl)nc(NCCc3cccc(Cl)c3)c2=O)cc1 [compound 87] | – | > 30 | 0.07 | – |
| CC(C)Nc1nc(Cl)c(-c2cccc(N)c2)n(CC(=O)NCc2ccc(C(=N)N)s2)c1=O [Example 55] | – | – | 0.15 | IC50 or % Inhibition Factor Xa (30 µM) (Human factor Xa): 0% |
| N=C(N)c1ccc(CNC(=O)Cn2c(-c3ccc(C(F)(F)F)cc3)c(Cl)nc(NC3CCC3)c2=O)cc1 [1515-20] | – | > 30 | – | IC50 or % Inhibition TF-VIIa (30 µM) (TF-VIIa): 32% |
| N=C(N)c1ccc(CNC(=O)Cn2c(-c3ccccc3C(F)(F)F)c(Cl)nc(NC3CCC3)c2=O)cc1 [1515-24] | 1.6 | > 30 | – | – |
| Cc1c(N)cccc1-c1cnc(NC(C)C)c(=O)n1CC(=O)NCc1ccc(C(=N)N)cc1 [compound 98] | – | – | 0.09 | IC50 or % Inhibition Factor Xa (30 µM) (Human factor Xa): 10%@30 |
| Nc1cccc(-c2c(Cl)nc(NC3CCC3)c(=O)n2CC(=O)NCc2ccccc2)c1 [compound 99] | – | – | – | IC50 or % Inhibition TF-VIIa (30 µM) (TF-VIIa; % inhibition at 30 µM): 6%@30; IC50 or % Inhibition Factor Xa (30 µM) (Human factor Xa): 8%@30 |
| CCC(CC)Nc1nc(Cl)c(-c2cccc(N)c2)n(CC(=O)NCc2ccc(C(=N)N)cc2)c1=O [1526-11] | – | > 30 | 0.05 | – |
| Nc1cccc(-c2c(Cl)nc(NC3CCC3)c(=O)n2CC(=O)NCCc2ccccc2)c1 [compound 89] | – | – | – | IC50 or % Inhibition TF-VIIa (30 µM) (TF-VIIa; % inhibition at 30 µM): 5%@30; IC50 or % Inhibition Factor Xa (30 µM) (Human factor Xa): 5%@30 |
| N=C(N)c1ccc(CNC(=O)Cn2c(-c3cccc(Br)c3)c(Cl)nc(NC3CCC3)c2=O)cc1 [1515-22] | – | > 30 | 4.2 | – |
| N=C(N)c1ccc(CNC(=O)Cn2c(-c3sccc3Br)c(Cl)nc(NCCc3ccccc3)c2=O)cc1 [1515-27] | 1.1 | > 30 | – | – |
| N=C(N)c1ccc(CNC(=O)Cn2c(-c3ccccc3C(F)(F)F)c(Cl)nc(NCc3ccccc3)c2=O)cc1 [1515-12] | 6.3 | > 30 | – | – |
| N=C(N)NCCC[C@H](NC(=O)Cn1c(CCc2ccccc2)c(Cl)nc(NCCc2ccccc2)c1=O)C(=O)c1nccs1 [Example 5] | – | – | 7 | IC50 (Human factor Xa): 4 µM |
| N=C(N)c1ccc(CNC(=O)Cn2c(-c3cccc(N)c3)c(Cl)nc(N[C@@H]3CC4CCC3C4)c2=O)cc1 (stereo partly shown) [1526-30] | 0.08 | > 30 | – | – |
| N=C(N)c1ccc(CNC(=O)Cn2c(Cc3ccccc3)cnc(NCCc3ccccc3)c2=O)cc1 [Example 2] | – | – | 5 | IC50 (Human factor Xa): > 100 µM |
| N=C(N)NCCCC(NC(=O)Cn1c(-c2cccc(N)c2)c(Cl)nc(NCc2ccccc2)c1=O)C(=O)c1nccs1 (stereo not shown) [compound 91] | – | 7 | 0.07 | – |
